Columns and labels:
CHO cells = experiment: Fluorescence labeling and imaging of azido-sugar modified CHO cells by click reaction; format: cell-based, Chinese hamster; settings: fixed CHO cells
Protocol: Chinese hamster ovary (CHO) cells were maintained in a 5% CO2, water-saturated atmosphere and grown in F12 HAMS medium supplemented with 10% FBS, 1% penstrep and 1% L-glutamine. For biolabeling experiments, the cells were incubated for 2-3 days in the regular medium or medium supplemented with 100 μM Ac4ManNAc (Molecular probes) in an eight-well LabTek II chamber slide (Nunc). The medium was gently aspirated, and the cells were fixed at −20° C. by methanol for 10 min and then acetone for 1 min. […] Fluorescent images were captured on a Nikon Eclipse TE2000-S fluorescence microscope with 40× objective equipped with a Photometrics Cascade 512B CCD camera using excitation and emission filters from Chroma Technology. […]
Cells incubated with azido-sugar supplemented media (top) or unsupplimented media (bottom) are presented after treatment with CyAm-5 alkyne in the presence of Cu(I)/TBTA as catalyst. Cell nuclei stained with DAPI colored blue (left), fluorescence signal from CyAm-5 alkyne colored red (center) and the merged images (right) are shown. […]
FIGS. 6A-6B show fluorescent imaging of CHO cells labeled with CyAm-5 alkyne and controls. […] Cell nuclei stained with DAPI, fluorescence of labeled CyAm-5 alkyne and merge figures of the two above are shown in column left, middle and right, respectively. […]

[1] = Absorption spectra and extinction coefficients of the fluorophores; format: physicochemical; settings: PBS, pH 7.0
Protocol: Absorption spectra and extinction coefficients of the fluorophores were obtained on a Varian Cary 50-Bio UV-visible spectrophotometer. Extinction coefficients were measured in phosphate-buffered saline (PBS), 10 mM phosphate buffer pH 7.0, […] potassium chloride and 137 mM sodium chloride and were averaged over at least three sets of parallel experiments. For each trail, 2-3 mg of the HPLC-purified dyes were weighed on a Mettler AT201 analytical balance with an error of ±0.01 mg and were dissolved in deionized water using a 10 mL volumetric flask to prepare the stock solutions.
(§1) FIG. 9 summarizes the optical properties of CyAl-5 and CyAl-5.5. Spectra were obtained in phosphate buffered solution, pH 7.0. The extinction coefficients, at the dye absorption maxima, were performed in triplicate. Emission spectra were excited at 620 nm for CyAl-5 and 640 nm for CyAl-5.5. CyAl-5 and CyAl-5.5, Cy5 and Cy5.5 were used as fluorescence standards, respectively. The data are the average of at least 8 replicates and errors were <5%.

[2] = Emission spectra and fluorescence quantum yield; format: physicochemical; settings: PBS, pH 7.0
Protocol: Emission spectra were collected on a Varian Cary Eclipse fluorescence spectrophotometer. Quantum yield measurements were performed on at least eight trails for each dye derivative with maximum absorption for each sample less than 0.1, using Cy5 as a standard (Φ=0.27) (Mujumdar, R. B., Ernst, L. A., Mujumdar, S. R., Lewis, C. J., and Waggoner, A. S. (1993) Cyanine dye labeling reagents: sulfoindocyanine succinimidyl esters. Bioconjug. Chem. 4, 105-11). The standard deviation for both the extinction coefficient and quantum yield measurements is less than 5%.
as §1

[3] = Photostability (dye photobleaching under irradiation); format: physicochemical; settings: for photobleached: after 60 minutes of irradiation at 620 nm, PBS pH 7.0, absorbance matched (FIG. 4); for photobleaching: irradiated for an hour at 620 nm, PBS pH 7.0, A620 nm<0.1 (FIG. 7)
Protocol: Photostability data were collected on a Horiba Jobin Yvon Fluorolog-3 spectrofluorometer (Edison, N.Y.) equipped with a 450 W xenon lamp (Ushio inc. Japan). Dye photobleaching was observed by monitoring the fluorescence emission of absorbance matched dye samples (absorbance <0.1) at an excitation wavelength 620 nm for 60 minutes. […] Thus, CyAm-5 acid has 28% better photostability than Cy5.
Dye samples with the same absorption (A620 nm<0.1) were irradiated for an hour at 620 nm. Both bio-conjugatable new dyes, CyAm-5 acid and CycloCyAm-5 acid with photobleaching of 30% and 12%, respectively, were more photostable than Cy5 (45%).

[4] = as indicated on www.gelifesciences.com; cited from earlier work
[5] = cited from earlier work; for λem: as indicated on www.gelifesciences.com

C#Cc1cccc(NC(=O)CCC(/C=C/C2=[N+](CC)c3ccc(S(=O)(=O)O)cc3C2(C)C)=C\C=C2\N(CC)c3ccc(S(=O)(=O)O)cc3C2(C)C)c1 [CyAm-5 alkyne]
fluorescence signal of cells bearing azido sialic acid versus control cells (CHO cells; 20 μM dye, Cu(I) catalyst (FIG. 5)): increased fluorescence signal | conditions under which enhancement of fluorescence signal is observed (CHO cells; with or without Cu(I), TBTA, azido-sugar (FIG. 6A-B)): only observed in the presence of both catalyst Cu(I) and azido glycans

CCN1/C(=C/C=C(/C=C/C2=[N+](CC)c3ccc(S(=O)(=O)O)cc3C2(C)C)CCC(=O)Nc2ccc(C(=O)O)cc2)C(C)(C)c2cc(S(=O)(=O)O)ccc21 [CyAm-5 acid]
absorption maximum [1]: 642 nm | emission maximum [2]: 658 nm | photobleached [3]: 42% | better photostability / less photobleaching compared to Cy5 ([3]; after an hour irradiation at 620 nm (FIG. 4)): 28% | photobleaching [3]: 30%

CCN1/C(=C/C=C/C=C/C2=[N+](CCCCCC(=O)O)c3ccc(S(=O)(=O)O)cc3C2(C)C)C(C)(C)c2cc(S(=O)(=O)[O-])ccc21 [Cy5]
photobleached [3]: 54% | photobleaching [3]: 45% | λabs [4]: 646 nm | quantum yield of standard (Φ) ([5]; Cy5 used as standard, literature value): 0.27 | λem [5]: 664 nm

CC1(C)C2=C(/C=C(/C=C3\CCC[N+]4=C3C(C)(C)c3cc(S(=O)(=O)O)ccc34)CCC(=O)Nc3ccc(C(=O)O)cc3)CCCN2c2ccc(S(=O)(=O)O)cc21 [CycloCyAm-5 acid]
photobleaching [3]: 12%

Cy5.5
λabs [4]: 673 nm | λem [5]: 693 nm
